Here are results for two molecules from PMC4823750, “Enoyl-CoA hydratase mediates polyhydroxyalkanoate mobilization in Haloferax mediterranei” (Scientific Reports, 2016).

Assay [1] concerns the target T1, PhaJ1 (PhaJ1-His6; HFX_5217) (Haloferax mediterranei, UniProt A0ACN4YM66).
T1 construct: gene maoC; N-terminal His6 tag kept; 219 residues (native); expressed from pTA05-phaJ1 in Haloferax volcanii H1424, Ni-agarose purified
As to the kind of experiment: HPLC of dehydration product. It is filed as biochemical. The following applies: 0.25 mM racemic 3HB-CoA; 2 M KCl, 100 mM Tris-HCl pH 7.5, 5 mM MgCl2, 45 °C, 30 min.

The target in assay [2] is T1, PhaJ1 (PhaJ1-His6; HFX_5217). Nature of the assay: HPLC of hydration product. The following applies: 0.25 mM crotonyl-CoA; 2 M KCl, 100 mM Tris-HCl pH 7.5, 5 mM MgCl2, 45 °C, 30 min. The format is biochemical.

Each structure is given as a SMILES string.

T1 sequence (A0ACN4YM66 entry or part of it): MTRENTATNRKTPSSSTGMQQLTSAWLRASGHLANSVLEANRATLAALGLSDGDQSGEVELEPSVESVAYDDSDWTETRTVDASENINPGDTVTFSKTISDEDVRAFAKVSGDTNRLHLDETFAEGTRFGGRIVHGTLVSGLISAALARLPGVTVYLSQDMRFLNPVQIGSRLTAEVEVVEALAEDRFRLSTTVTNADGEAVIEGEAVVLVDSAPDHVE

Consider `CC(O)CC(=O)SCCNC(=O)CCNC(=O)[C@H](O)C(C)(C)COP(=O)(O)OP(=O)(O)OC[C@H]1O[C@@H](n2cnc3c(N)ncnc32)[C@H](O)[C@@H]1OP(=O)(O)O` (some centres unmarked) [3-hydroxybutyryl-CoA], for which the “HPLC of dehydration product” value in assay [1] is “minor 3HB-CoA was converted into crotonyl-CoA by PhaJ1”.
`C/C=C/C(=O)SCCNC(=O)CCNC(=O)[C@H](O)C(C)(C)COP(=O)(O)OP(=O)(O)OC[C@H]1O[C@@H](n2cnc3c(N)ncnc32)[C@H](O)[C@@H]1OP(=O)(O)O` [crotonyl-CoA]: in assay [2], the “HPLC of hydration product” value was “major crotonyl-CoA was converted into 3HB-CoA by PhaJ1”.
